Measurements from patent US20220281848A1, “PYRAZOLE-SUBSTITUTED PYRROLIDINONES AS HERBICIDES” (FMC Corporation, priority 2019, published 2022).

Assays:
Format in all cases: in vivo
corn (Zea mays, ZEAMX) = assay: Test A pre-emergence, corn; settings: after 13 d
Method in brief: (§1)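 After sowing in pots and a single day of glasshouse cultivation, the soil was treated with an aqueous spray of the compound (acetone/water 50:50, 0.5% Tween 20) giving 15.625, 62.5 or 250 g/ha. Evaluation after 13 d used a scale where 0 meant no damage and 100 total damage.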

maize = assay: Test D pre-emergence, maize seed treated with a herbicide safener; settings: ZEAMX, preemergent, 20 DAA
Experimental: (§2) A formulation containing 50 g/L of the test chemical was prepared by dissolving the active ingredient in a mixture of organic solvents and emulsifier, details of which are provided in the table. This formulation was then mixed with a small, variable amount of acetone to aid dissolution, before addition of a 0.2% v/v aqueous solution of an adjuvant, as the aqueous diluent, to form an aqueous spray solution which contains a predetermined concentration of the active ingredient.
(§3) This aqueous spray solution was then sprayed onto plants including maize and wheat that had been seed treated with a herbicide safener, after one day's cultivation (for pre-emergence) or after about 12 days' cultivation (for post-emergence). The plants were grown from seeds sown in standard soil, placed in a glasshouse under controlled conditions (at 24/18° C. or 20/16° C., day/night; 16 h light; 65% humidity). After spray application the plants were then grown in a glasshouse under the same conditions and watered twice daily. After 15 d for post-emergence and 20 DAA for pre-emergence the test was evaluated (100=total damage to plant; 0=no damage to plant).

[1] = tested on: redroot pigweed (Amaranthus retroflexus, AMARE); assay: Test A pre-emergence, redroot pigweed; settings: after 13 d
Method in brief: as §1

wheat = assay: Test D pre-emergence, wheat seed treated with a herbicide safener; settings: 100=total damage, 0=no damage
Experimental: as §2, §3

[2] = tested on: velvetleaf (Abutilon theophrasti, ABUTH); assay: Test A pre-emergence, velvetleaf; settings: after 13 d
Method in brief: as §1

[3] = tested on: giant foxtail (Setaria faberi, SETFA); assay: Test A pre-emergence, giant foxtail; settings: after 13 d
Method in brief: as §1

[4] = tested on: barnyardgrass (Echinochloa crus-galli, ECHCG); assay: Test A post-emergence, barnyardgrass; settings: after 13 d
Method in brief: (§4)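 Visual damage rating (0 no damage to 100 total damage) was made 13 d after spraying. The spray was 15.625, 62.5 or 250 g/ha in 50:50 acetone/water with 0.5% Tween 20, applied to 8-day-old glasshouse plants kept at 24/16° C, 14 h light and 65% humidity.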

[5] = tested on: redroot pigweed (Amaranthus retroflexus, AMARE); assay: Test A post-emergence, redroot pigweed; settings: after 13 d
Method in brief: as §4

[6] = tested on: giant foxtail (Setaria faberi, SETFA); assay: Test A post-emergence, giant foxtail; settings: after 13 d
Method in brief: as §4

[7] = tested on: velvetleaf (Abutilon theophrasti, ABUTH); assay: Test A post-emergence, velvetleaf; settings: after 13 d
Method in brief: as §4

Row | SMILES | damage to plant (100=total damage; 0=no damage) ZEAMX (corn (Zea mays, ZEAMX); Pre-Emergence at 15.625 g/ha) | damage to plant (100=total damage; 0=no damage) ZEAMX (corn (Zea mays, ZEAMX); Pre-Emergence at 62.5 g/ha) | damage to plant (100=total damage; 0=no damage) ZEAMX (corn (Zea mays, ZEAMX); Pre-Emergence at 250 g/ha) | damage to plant (100=total damage to plant; 0=no damage to plant), ZEAMX (maize; rate 15) | damage to plant (100=total damage to plant; 0=no damage to plant), ZEAMX (maize; rate 30) | damage to plant (100=total damage to plant; 0=no damage to plant), ZEAMX (maize; rate 60) | damage to plant (100=total damage to plant; 0=no damage to plant), ZEAMX (maize; rate 130) | damage to plant (100=total damage to plant; 0=no damage to plant), ZEAMX (maize; rate 250) | damage to plant (100=total damage to plant; 0=no damage to plant), ZEAMX (maize; rate 500) | damage to plant (100=total damage; 0=no damage) AMARE ([1]; Pre-Emergence at 15.625 g/ha) | damage to plant (100=total damage; 0=no damage) AMARE ([1]; Pre-Emergence at 62.5 g/ha) | damage to plant (100=total damage; 0=no damage) AMARE ([1]; Pre-Emergence at 250 g/ha) | damage to plant, TRZAW (wheat; rate 15, 20 DAA) | damage to plant, TRZAW (wheat; rate 30, 20 DAA) | damage to plant, TRZAW (wheat; rate 60, 20 DAA) | damage to plant, TRZAW (wheat; rate 130, 20 DAA) | damage to plant, TRZAW (wheat; rate 250, 20 DAA) | damage to plant, TRZAW (wheat; rate 500, 20 DAA) | damage to plant (100=total damage; 0=no damage) ABUTH ([2]; Pre-Emergence at 15.625 g/ha) | damage to plant (100=total damage; 0=no damage) ABUTH ([2]; Pre-Emergence at 62.5 g/ha) | other results
1 | CN1CC(c2cc(C(F)(F)F)n(C)n2)C(C(=O)Nc2cccc(F)c2F)C1=O (racemic) [Compound 3] | 0 | 60 | 90 | 0 | 0 | 0 | 0 | 0 | 0 | 20 | 20 | 70 | 0 | 0 | 0 | 0 | 0 | 60 | 0 | 0 | damage to plant (100=total damage; 0=no damage) ABUTH ([2]; Pre-Emergence at 250 g/ha): 10; damage to plant (100=total damage; 0=no damage) SETFA ([3]; Pre-Emergence at 15.625 g/ha): 90; damage to plant (100=total damage; 0=no damage) SETFA ([3]; Pre-Emergence at 62.5 g/ha): 90; damage to plant (100=total damage; 0=no damage) SETFA ([3]; Pre-Emergence at 250 g/ha): 90; damage to plant (100=total damage; 0=no damage) ECHCG ([4]; Post-Emergence at 15.625 g/ha): 90; damage to plant (100=total damage; 0=no damage) ECHCG ([4]; Post-Emergence at 62.5 g/ha): 90; damage to plant (100=total damage; 0=no damage) ECHCG ([4]; Post-Emergence at 250 g/ha): 90; damage to plant (100=total damage; 0=no damage) AMARE ([5]; Post-Emergence at 15.625 g/ha): 0; damage to plant (100=total damage; 0=no damage) AMARE ([5]; Post-Emergence at 62.5 g/ha): 10; damage to plant (100=total damage; 0=no damage) AMARE ([5]; Post-Emergence at 250 g/ha): 20; damage to plant (100=total damage; 0=no damage) SETFA ([6]; Post-Emergence at 15.625 g/ha): 80; damage to plant (100=total damage; 0=no damage) SETFA ([6]; Post-Emergence at 62.5 g/ha): 90; damage to plant (100=total damage; 0=no damage) SETFA ([6]; Post-Emergence at 250 g/ha): 90; damage to plant (100=total damage; 0=no damage) ABUTH ([7]; Post-Emergence at 15.625 g/ha): 0; damage to plant (100=total damage; 0=no damage) ABUTH ([7]; Post-Emergence at 62.5 g/ha): 0; damage to plant (100=total damage; 0=no damage) ABUTH ([7]; Post-Emergence at 250 g/ha): 0
2 | CN1CC(c2cc(C(F)(F)F)n(C)n2)C(C(=O)Nc2cccc(F)n2)C1=O (racemic) [Compound 24] | 0 | 30 | 80 | 0 | 0 | 0 | 0 | 0 | 0 | 0 | 0 | 0 | 0 | 0 | 0 | 0 | 0 | 10 | 0 | 0 | damage to plant (100=total damage; 0=no damage) ABUTH ([2]; Pre-Emergence at 250 g/ha): 0; damage to plant (100=total damage; 0=no damage) SETFA ([3]; Pre-Emergence at 15.625 g/ha): 70; damage to plant (100=total damage; 0=no damage) SETFA ([3]; Pre-Emergence at 62.5 g/ha): 90; damage to plant (100=total damage; 0=no damage) SETFA ([3]; Pre-Emergence at 250 g/ha): 90; damage to plant (100=total damage; 0=no damage) ECHCG ([4]; Post-Emergence at 15.625 g/ha): 40; damage to plant (100=total damage; 0=no damage) ECHCG ([4]; Post-Emergence at 62.5 g/ha): 80; damage to plant (100=total damage; 0=no damage) ECHCG ([4]; Post-Emergence at 250 g/ha): 80; damage to plant (100=total damage; 0=no damage) AMARE ([5]; Post-Emergence at 15.625 g/ha): 0; damage to plant (100=total damage; 0=no damage) AMARE ([5]; Post-Emergence at 62.5 g/ha): 0; damage to plant (100=total damage; 0=no damage) AMARE ([5]; Post-Emergence at 250 g/ha): 0; damage to plant (100=total damage; 0=no damage) SETFA ([6]; Post-Emergence at 15.625 g/ha): 20; damage to plant (100=total damage; 0=no damage) SETFA ([6]; Post-Emergence at 62.5 g/ha): 70; damage to plant (100=total damage; 0=no damage) SETFA ([6]; Post-Emergence at 250 g/ha): 80; damage to plant (100=total damage; 0=no damage) ABUTH ([7]; Post-Emergence at 15.625 g/ha): 0; damage to plant (100=total damage; 0=no damage) ABUTH ([7]; Post-Emergence at 62.5 g/ha): 0; damage to plant (100=total damage; 0=no damage) ABUTH ([7]; Post-Emergence at 250 g/ha): 0
3 | CCn1nc([C@H]2CN(C)C(=O)[C@@H]2C(=O)Nc2cccc(F)c2F)c2ccc(F)cc21 [Compound 4] | 0 | 40 | 80 | 0 | 0 | 0 | 0 | 0 | 10 | 0 | 20 | 40 | 0 | 0 | 0 | 0 | 0 | 0 | 0 | 0 | damage to plant (100=total damage; 0=no damage) ABUTH ([2]; Pre-Emergence at 250 g/ha): 0; damage to plant (100=total damage; 0=no damage) SETFA ([3]; Pre-Emergence at 15.625 g/ha): 80; damage to plant (100=total damage; 0=no damage) SETFA ([3]; Pre-Emergence at 62.5 g/ha): 90; damage to plant (100=total damage; 0=no damage) SETFA ([3]; Pre-Emergence at 250 g/ha): 90; damage to plant (100=total damage; 0=no damage) ECHCG ([4]; Post-Emergence at 15.625 g/ha): 80; damage to plant (100=total damage; 0=no damage) ECHCG ([4]; Post-Emergence at 62.5 g/ha): 90; damage to plant (100=total damage; 0=no damage) ECHCG ([4]; Post-Emergence at 250 g/ha): 90; damage to plant (100=total damage; 0=no damage) AMARE ([5]; Post-Emergence at 15.625 g/ha): 0; damage to plant (100=total damage; 0=no damage) AMARE ([5]; Post-Emergence at 62.5 g/ha): 20; damage to plant (100=total damage; 0=no damage) AMARE ([5]; Post-Emergence at 250 g/ha): 20; damage to plant (100=total damage; 0=no damage) SETFA ([6]; Post-Emergence at 15.625 g/ha): 90; damage to plant (100=total damage; 0=no damage) SETFA ([6]; Post-Emergence at 62.5 g/ha): 90; damage to plant (100=total damage; 0=no damage) SETFA ([6]; Post-Emergence at 250 g/ha): 90; damage to plant (100=total damage; 0=no damage) ABUTH ([7]; Post-Emergence at 15.625 g/ha): 0; damage to plant (100=total damage; 0=no damage) ABUTH ([7]; Post-Emergence at 62.5 g/ha): 0; damage to plant (100=total damage; 0=no damage) ABUTH ([7]; Post-Emergence at 250 g/ha): 20
